Patent publication US20260325653A1, “HETEROBIFUNCTIONAL SMALL MOLECULES THAT DEUBIQUITINYLATE AND STABILIZE TARGET PROTEINS BY RECRUITING USP7” (ICAHN SCHOOL OF MEDICINE AT MOUNT SINAI, priority 2023, published 2026)

Tested on: CFTR mRNA
Experiment: RT-qPCR analysis of CFTR mRNA levels in CFBE41o− 4.7 ΔF508-CFTR cells
Type: cell-based, human
Details: 10 μM, 24 h

Cc1ccc(NC(=O)C2(c3ccc4c(c3)OC(F)(F)O4)CC2)nc1-c1cccc(C(=O)NCCCCCCCCCNC(=O)CNCc2ccc(-c3c4ncn(CC5(O)CCN(C(=O)C[C@@H](C)c6ccccc6)CC5)c(=O)c4nn3C)cc2)c1 [MS6869, (R)-3-(6-(1-(2,2-difluorobenzo[d][1,3]dioxol-5-yl)cyclopropane-1-carboxamido)-3-methylpyridin-2-yl)-N-(9-(2-((4-(6-((4-hydroxy-1-(3-phenylbutanoyl)piperidin-4-yl)methyl)-2-methyl-7-oxo-6,7-dihydro-2H-pyrazolo[4,3-d]pyrimidin-3-yl)benzyl)amino)acetamido)nonyl)benzamide]
mRNA levels of CFTR: do not affect the mRNA levels of CFTR
